Data from ChEMBL document CHEMBL4732126, “Design, synthesis, and biodistribution studies of new analogues of marine alkaloids: Potent in vitro and in vivo fungicidal agents against Candida spp” (Eur J Med Chem, 2021).
Calls of active or inactive are those of the source. The rule behind the calls is not given here.

Assays:
Candida albicans [1] = assay: Antifungal activity against Candida albicans ATCC 10231 assessed as reduction in fungal growth incubated for 48 hrs by broth microdilution method; format: functional
Candida albicans [2] = assay: Antifungal activity against Candida albicans ATCC 18804 assessed as reduction in fungal growth incubated for 48 hrs by broth microdilution method; format: functional
Nakaseomyces glabratus [3] = assay: Antifungal activity against Candida glabrata ATCC 2001 assessed as reduction in fungal growth incubated for 48 hrs by broth microdilution method; format: functional
Candida albicans [4] = assay: Antifungal activity against Candida albicans isolate 1 assessed as reduction in fungal growth incubated for 48 hrs by broth microdilution method; format: functional
Candida albicans [5] = assay: Fungicidal activity against Candida albicans isolate 2 assessed as fungal killing incubated for 48 hrs followed by plating on SD agar plate; format: functional; details: read-out: MFC99.9
Candida albicans [6] = assay: Fungicidal activity against Candida albicans isolate 10 assessed as fungal killing incubated for 48 hrs followed by plating on SD agar plate; format: functional; details: read-out: MFC99.9
Candida albicans [7] = assay: Fungicidal activity against Candida albicans isolate 11 assessed as fungal killing incubated for 48 hrs followed by plating on SD agar plate; format: functional; details: read-out: MFC99.9
Candida albicans [8] = assay: Fungicidal activity against Candida albicans ATCC 10231 assessed as reduction in fungal load at 7.8 ug/ml incubated for 4 hrs followed by inoculation on SD agar plate for 48 hrs by time-kill assay; format: functional; details: dose 7.8 µg/ml; time 52 hrs
Candida albicans [9] = assay: Fungicidal activity against Candida albicans ATCC 10231 assessed as reduction in fungal load at 15.6 ug/ml incubated for 4 hrs followed by inoculation on SD agar plate for 48 hrs by time-kill assay; format: functional; details: dose 15.6 µg/ml; time 52 hrs
Candida albicans [10] = assay: Disruption of cell membrane in Candida albicans ATCC 10231 assessed as increase in intracellular leakage at MIC incubated for 24 hrs by UV spectrophotometric analysis; format: cell-based
Pichia kudriavzevii [11] = assay: Disruption of cell membrane in Candida krusei ATCC 34135 assessed as increase in intracellular leakage at MIC incubated for 24 hrs by UV spectrophotometric analysis; format: cell-based
Nakaseomyces glabratus [12] = assay: Antifungal activity against Candida glabrata ATCC 2001 assessed as reduction in fungal growth incubated for 48 hrs in presence of ergosterol by broth microdilution method; format: functional
Pichia kudriavzevii [13] = assay: Antifungal activity against Candida krusei ATCC 34135 assessed as reduction in fungal growth incubated for 48 hrs in presence of sorbitol by broth microdilution method; format: functional
Candida tropicalis = assay: Antifungal activity against Candida tropicalis ATCC 28707 assessed as reduction in fungal growth incubated for 48 hrs in presence of sorbitol by broth microdilution method; format: functional
Candida albicans [14] = assay: Antifungal activity against Candida albicans ATCC 10231 assessed as inhibition of yeast to hypha morphological transition at 15.6 ug/ml measured upto 72 hrs by microscopic analysis; format: functional, organism-based; details: dose 15.6 µg/ml, time hrs <=72
Candida albicans [15] = assay: Antibiofilm activity against Candida albicans ATCC 10231 assessed as reduction in mature biofilm incubated for 48 hrs by crystal violet staining based spectrophotometric analysis relative to control; format: functional, organism-based; details: dose 0.48-125 µg/ml
Candida albicans [16] = assay: Antibiofilm activity against Candida albicans ATCC 10231 assessed as reduction in biofilm formation at 0.24 to 7.81 ug/ml by crystal violet staining based spectrophotometric analysis; format: functional, organism-based; details: dose 0.24-7.81 µg/ml
[17] = Toxicity in Swiss mouse assessed as effect on kidney at 0.5 to 10 mg/kg, ip measured after 24 hrs by macroscopic analysis; format: organism-based; details: in vivo, dose 0.5-10 mg/kg
[18] = Toxicity in Swiss mouse assessed as body weight at 20 mg/kg, ip measured after 24 hrs (reference value: 36.25 +/- 0.31 g); format: organism-based; details: in vivo
[19] = Toxicity in Swiss mouse assessed as relative lung weight at 10 mg/kg, ip measured after 24 hrs (reference value: 6.35 +/- 0.68 g); format: organism-based; details: in vivo
[20] = Toxicity in Swiss mouse assessed as relative spleen weight at 0.5 mg/kg, ip measured after 24 hrs (reference value: 4.02 +/- 0.59 g); format: organism-based; details: in vivo
[21] = Toxicity in Swiss mouse assessed as relative spleen weight at 10 mg/kg, ip measured after 24 hrs (reference value: 4.02 +/- 0.59 g); format: organism-based; details: in vivo
[22] = Toxicity in Swiss mouse assessed as relative heart weight at 10 mg/kg, ip measured after 24 hrs (reference value: 4.75 +/- 0.60 g); format: organism-based; details: in vivo
[23] = Toxicity in Swiss mouse assessed as relative liver weight at 1 mg/kg, ip measured after 24 hrs (reference value: 49.42 +/- 7.17 g); format: organism-based; details: in vivo
[24] = Toxicity in Swiss mouse assessed as relative liver weight at 3 mg/kg, ip measured after 24 hrs (reference value: 49.42 +/- 7.17 g); format: organism-based; details: in vivo
[25] = Toxicity in Swiss mouse assessed as relative liver weight at 20 mg/kg, ip measured after 24 hrs (reference value: 49.42 +/- 7.17 g); format: organism-based; details: in vivo
Candida albicans [26] = assay: In vivo antifungal activity in Swiss mouse infected with Candida albicans ATCC 10231 assessed as reduction in fungal load in kidney at 0.5 mg/kg, ip administered at 2, 24 and 48 hrs post-infection and measured per gm of organ at 24 hrs post-last dose (reference value: 2.47); format: functional; details: time 72 hrs
Candida albicans [27] = assay: In vivo antifungal activity in Swiss mouse infected with Candida albicans ATCC 10231 assessed as reduction in fungal load in kidney at 1 mg/kg, ip administered at 2, 24 and 48 hrs post-infection and measured per gm of organ at 24 hrs post-last dose (reference value: 2.47); format: functional; details: time 72 hrs
Candida albicans [28] = assay: In vivo antifungal activity in Swiss mouse infected with Candida albicans ATCC 10231 assessed as reduction in fungal load in spleen at 1 mg/kg, ip administered at 2, 24 and 48 hrs post-infection and measured per gm of organ at 24 hrs post-last dose (reference value: 2.34); format: functional; details: time 72 hrs
[29] = Toxicity in Swiss mouse assessed as effect on liver at 0.5 to 10 mg/kg, ip measured after 24 hrs by macroscopic analysis; format: organism-based; details: in vivo, dose 0.5-10 mg/kg
[30] = Toxicity in Swiss mouse infected with Candida albicans ATCC 10231 assessed as effect on liver weight at 10 mg/kg, ip administered at 2, 24 and 48 hrs post-infection and measured at 24 hrs after last dose; format: organism-based; details: in vivo, 72 h
[31] = Toxicity in Swiss mouse infected with Candida albicans ATCC 10231 assessed as effect on spleen weight at 10 mg/kg, ip administered at 2, 24 and 48 hrs post-infection and measured at 24 hrs after last dose; format: organism-based; details: in vivo, 72 h
[32] = Toxicity in Swiss mouse infected with Candida albicans ATCC 10231 assessed as effect on lung at 10 mg/kg, ip administered at 2, 24 and 48 hrs post-infection and measured at 24 hrs after last dose by macroscopic analysis; format: organism-based; details: in vivo, 72 h

Question: With `[Cl-].[N-]=[N+]=NCCCCCCCCCCCCOCCCc1ccc[n+](Cc2ccccc2)c1` as the molecule, how does the MIC (Candida albicans [1]) read?
Answer: Its MIC is 7.8 µg/mL.

Question: What about the MIC (Candida albicans [2]) of the same molecule?
Answer: The MIC was 7.8 µg/mL.

Question: And the MIC (Nakaseomyces glabratus [3])?
Answer: The MIC was 7.8 µg/mL.

Question: And the MIC (Candida albicans [4])?
Answer: Its MIC is 7.8 µg/mL.

Question: And the MFC (Candida albicans [5])?
Answer: Its MFC is 7.8 µg/mL.

Question: And the MFC (Candida albicans [6])?
Answer: The MFC was 31.2 µg/mL.

Question: And the MFC (Candida albicans [7])?
Answer: The MFC was 7.8 µg/mL.

Question: What about the “log(activity)” value (Candida albicans [8]) of the same molecule?
Answer: The value was 3.

Question: What about the “log(activity)” value (Candida albicans [9]) of the same molecule?
Answer: Its value is 2.

Question: What about the Activity (Candida albicans [10]) of the same molecule?
Answer: The Activity was “Active”.

Question: And the Activity (Pichia kudriavzevii [11])?
Answer: The Activity was “Active”.

Question: What about the MIC (Nakaseomyces glabratus [12]) of the same molecule?
Answer: Its MIC is 7.8 µg/mL.

Question: What about the MIC (Pichia kudriavzevii [13]) of the same molecule?
Answer: The MIC was 3.9 µg/mL.

Question: And the MIC (Candida tropicalis)?
Answer: Its MIC is 7.8 µg/mL.

Question: And the Activity (Candida albicans [14])?
Answer: The Activity was “Active”.

Question: What about the Activity (Candida albicans [15]) of the same molecule?
Answer: Its Activity is “Dose-dependent effect”.

Question: And the Activity (Candida albicans [16])?
Answer: The Activity was “Active”.

Question: What about the Activity [17] of the same molecule?
Answer: The Activity was “Non-Toxic”.

Question: What about the Activity [18] of the same molecule?
Answer: The Activity was 32.5 g.

Question: What about the Activity [19] of the same molecule?
Answer: The Activity was 6.01 g.

Question: What about the Activity [20] of the same molecule?
Answer: The Activity was 3.85 g.

Question: And the Activity [21]?
Answer: The Activity was 2.85 g.

Question: What about the Activity [22] of the same molecule?
Answer: The Activity was 4.95 g.

Question: What about the Activity [23] of the same molecule?
Answer: Its Activity is 44.68 g.

Question: What about the Activity [24] of the same molecule?
Answer: Its Activity is 45.03 g.

Question: And the Activity [25]?
Answer: The Activity was 45 g.

Question: And the Activity (Candida albicans [26])?
Answer: The Activity was 0 log10CFU.

Question: What about the Activity (Candida albicans [27]) of the same molecule?
Answer: The Activity was 0 log10CFU.

Question: And the Activity (Candida albicans [28])?
Answer: The Activity was 0 log10CFU.

Question: And the Activity [29]?
Answer: The Activity was “Non-Toxic”.

Question: And the Activity [30]?
Answer: The Activity was “Non-Toxic”.

Question: And the Activity [31]?
Answer: Its Activity is “Non-Toxic”.

Question: And the Activity [32]?
Answer: The Activity was “Non-Toxic”.
